In the assay the target is USP7 (Homo sapiens (Human), UniProt Q93009). As to the kind of experiment: USP7 fluorescence polarisation (FP) biochemical assay, ubiquitin-Lys-TAMRA substrate. The method in brief: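 Full-length His6-USP7 (2.5 nM) incubated ± inhibitor (8-point dilutions, 200 to 0.1 μM before addition) in 50 mM HEPES pH 7.2, 150 mM NaCl, 0.5 mM EDTA, 5 mM DTT, 0.05% BSA, 0.05% CHAPS. Ubiquitin-Lys-TAMRA cleavage followed by FP (ex 530/em 575 nm) every 15 min for 1.5 h; normalised to no-compound control.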
Sequence of USP7 (Q93009 whole entry): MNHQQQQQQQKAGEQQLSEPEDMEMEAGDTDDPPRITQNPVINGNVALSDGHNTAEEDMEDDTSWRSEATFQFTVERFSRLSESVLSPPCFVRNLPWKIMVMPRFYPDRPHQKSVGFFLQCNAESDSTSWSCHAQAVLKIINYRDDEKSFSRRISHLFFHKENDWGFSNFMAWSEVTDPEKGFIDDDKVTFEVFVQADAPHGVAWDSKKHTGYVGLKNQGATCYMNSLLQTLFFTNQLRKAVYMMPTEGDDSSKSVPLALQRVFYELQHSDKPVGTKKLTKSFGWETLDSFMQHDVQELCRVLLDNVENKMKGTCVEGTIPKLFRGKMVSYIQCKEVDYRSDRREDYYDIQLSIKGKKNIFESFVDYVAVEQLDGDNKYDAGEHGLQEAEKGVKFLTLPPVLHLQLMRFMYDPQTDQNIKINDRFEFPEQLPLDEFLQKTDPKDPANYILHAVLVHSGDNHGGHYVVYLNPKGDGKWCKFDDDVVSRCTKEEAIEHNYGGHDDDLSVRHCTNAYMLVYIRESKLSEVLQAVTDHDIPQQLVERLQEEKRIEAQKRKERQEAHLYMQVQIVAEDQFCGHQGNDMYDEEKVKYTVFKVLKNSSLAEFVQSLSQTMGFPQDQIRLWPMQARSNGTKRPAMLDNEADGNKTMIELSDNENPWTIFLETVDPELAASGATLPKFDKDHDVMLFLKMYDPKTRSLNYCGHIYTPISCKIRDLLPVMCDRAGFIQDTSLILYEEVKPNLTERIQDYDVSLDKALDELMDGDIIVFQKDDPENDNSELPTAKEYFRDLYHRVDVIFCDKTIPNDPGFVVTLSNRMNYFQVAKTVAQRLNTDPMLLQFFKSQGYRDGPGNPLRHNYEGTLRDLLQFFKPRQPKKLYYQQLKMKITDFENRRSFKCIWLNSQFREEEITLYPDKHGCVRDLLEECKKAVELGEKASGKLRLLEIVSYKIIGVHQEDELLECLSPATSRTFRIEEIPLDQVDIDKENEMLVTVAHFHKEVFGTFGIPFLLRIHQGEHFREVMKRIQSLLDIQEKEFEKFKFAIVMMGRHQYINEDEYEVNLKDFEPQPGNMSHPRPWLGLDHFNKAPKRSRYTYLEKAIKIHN
(In general: In fluorescence polarisation assays a small probe gives low polarisation when free and higher when bound to something large.)

The mark [1] stands for this setting: Table 4, biochemical assay, average of at least duplicate experiments, read-out: USP7 IC50.
Setting [2] is: USP7 IC50, Table 4, biochemical assay, average of at least duplicate experiments.

One may read the IC50 as the concentration needed to halve the response being measured.

The structures appear in SMILES notation. Where two headings read alike, the source gives them in different places. A value given as a limit tells only on which side of the number the result lay.

Regarding `COc1ccc(-n2c(Cl)cc3c(=O)n(CC4(O)CCN(C(=O)C5(C)CC5)CC4)cnc32)cc1OC` [Example 239, 6-Chloro-7-(3,4-dimethoxyphenyl)-3-((4-hydroxy-1-(1-methylcyclopropane-1-carbonyl)piperidin-4-yl)methyl)-3,7-dihydro-4H-pyrrolo[2,3-d]pyrimidin-4-one], the IC50 under setting [1] is < 250 nM. With `Cn1nc2c(=O)n(CC3(O)CCN(C(=O)OCc4ccccc4)CC3)cnc2c1-c1ccc(CN)cc1` [Example 112, Benzyl 4-((3-(4-(aminomethyl)phenyl)-2-methyl-7-oxo-2,7-dihydro-6H-pyrazolo[4,3-d]pyrimidin-6-yl)methyl)-4-hydroxypiperidine-1-carboxylate], the half-inhibitory concentration (IC50) under setting [1] lay within 1000 to 200000 nM. As to `CC1(C(=O)N2CCC(O)(Cn3cnc4c(cc(Cl)n4-c4cccc(-n5cc(C(F)(F)F)cn5)c4)c3=O)CC2)CC1` [Example 225, 6-Chloro-3-((4-hydroxy-1-(1-methylcyclopropanecarbonyl)piperidin-4-yl)methyl)-7-(3-(4-(trifluoromethyl)-1H-pyrazol-1-yl)phenyl)-3H-pyrrolo[2,3-d]pyrimidin-4(7H)-one], under setting [1], the IC50 fell in the range of 1000 to 200000 nM. On to `C[C@H](CC(=O)N1CCC(O)(Cn2cnc(N3CC(N)C3)cc2=O)CC1)c1ccccc1` [Example 13, (R)-6-(3-Aminoazetidin-1-yl)-3-((4-hydroxy-1-(3-phenylbutanoyl)piperidin-4-yl)methyl)pyrimidin-4(3H)-one], for which, under setting [2], the IC50 fell in the range of 250 to 999 nM. The same measure, in the same setting: for `C[C@H](CC(=O)N1CCC(O)(Cn2cnc(N3C[C@@H]4C[C@H]3CN(C)C4)cc2=O)CC1)c1ccccc1` (single isomer, unassigned) [Example 180] the value was < 250 nM. `Cn1c(Cl)cc2c(=O)n(CC3(O)CCN(C(=O)C4(C)CC4)CC3)cnc21` [Example 209, 6-Chloro-3-((4-hydroxy-1-(1-methylcyclopropanecarbonyl)piperidin-4-yl)methyl)-7-methyl-3H-pyrrolo[2,3-d]pyrimidin-4(7H)-one]: the IC50 under setting [1] is 1000 to 200000 nM. Take `C[C@H](CC(=O)N1CCC(O)(Cn2cnc3c(-c4cccc(CN5CCOCC5)c4)n(C)nc3c2=O)CC1)c1ccccc1` [Example 108, (R)-6-((4-Hydroxy-1-(3-phenylbutanoyl)piperidin-4-yl)methyl)-2-methyl-3-(3-(morpholinomethyl)phenyl)-2H-pyrazolo[4,3-d]pyrimidin-7(6H)-one]: the half-maximal inhibitory concentration (IC50) was 250 to 999 nM.

Take `C[C@H](CC(=O)N1CCC(O)(Cn2cnc(NC3CCCC3)cc2=O)CC1)c1ccccc1` [Example 167, (R)-6-(cyclopentylamino)-3-((4-hydroxy-1-(3-phenylbutanoyl)piperidin-4-yl)methyl)pyrimidin-4(3H)-one]: the half-maximal inhibitory concentration (IC50) under setting [2] lay in the range of 250 to 999 nM. As to `C[C@H](CC(=O)N1CCC(O)(Cn2cnc(Cl)c(N)c2=O)CC1)c1ccccc1` [Example 14, (R)-5-Amino-6-chloro-3-((4-hydroxy-1-(3-phenylbutanoyl)piperidin-4-yl)methyl)pyrimidin-4(3H)-one], the IC50 under setting [1] fell in the range of 1000 to 200000 nM. The same measure, in the same setting: for `C[C@H](CC(=O)N1CCC(O)(Cn2cnc3c(ncn3-c3ccccc3)c2=O)CC1)c1ccccc1` [Example 17, (R)-1-((4-Hydroxy-1-(3-phenylbutanol)piperidin-4-yl)methyl)-9-phenyl-1H-purin-6(9H)-one] the value was < 250 nM; for `C[C@H](CC(=O)N1CCC(O)(Cn2cnc3c(Nc4ccccc4)n(C)nc3c2=O)CC1)c1ccccc1` [Example 43, (R)-6-((4-Hydroxy-1-(3-phenylbutanoyl)piperidin-4-yl)methyl)-2-methyl-3-(phenylamino)-2H-pyrazolo[4,3-d]pyrimidin-7(6H)-one], 1000 to 200000 nM; for `C[C@H](CC(=O)N1CCC(O)(Cc2cnc3c(-c4ccccc4)cccn3c2=O)CC1)c1ccccc1` [Example 19, (R)-3-((4-Hydroxy-1-(3-phenylbutanoyl)piperidin-4-yl)methyl)-9-phenyl-4H-pyrido[1,2-a]pyrimidin-4-one], 1000 to 200000 nM. On to `Cn1nccc1-c1cc(-n2c(Cl)cc3c(=O)n(CC4(O)CCN(C(=O)c5cnc(C6CC6)o5)CC4)cnc32)ccc1F` [Example 230, 6-Chloro-3-((1-(2-cyclopropyloxazole-5-carbonyl)-4-hydroxypiperidin-4-yl)methyl)-7-(4-fluoro-3-(1-methyl-1H-pyrazol-5-yl)phenyl)-3H-pyrrolo[2,3-d]pyrimidin-4(7H)-one], for which, under setting [1], the IC50 fell in the range of 250 to 999 nM. For the molecule `C[C@H](CC(=O)N1CCC(O)(Cn2cnc(NCCNc3nccc(C(F)(F)F)n3)cc2=O)CC1)c1ccccc1` [Example 145, (R)-3-((4-hydroxy-1-(3-phenylbutanoyl)piperidin-4-yl)methyl)-6-((2-((4-(trifluoromethyl)pyrimidin-2-yl)amino)ethyl)amino)pyrimidin-4(3H)-one], under setting [1], the IC50 was in the range of 1000 to 200000 nM. Same read-out and setting: for `Cn1nc2c(=O)n(CC3(O)CCN(C(=O)C[C@H](c4ccccc4)C(F)(F)F)CC3)cnc2c1-c1ccc(CCN)cc1` [Example 87, (R)-3-(4-(2-Aminoethyl)phenyl)-6-((4-hydroxy-1-(4,4,4-trifluoro-3-phenylbutanoyl)piperidin-4-yl)methyl)-2-methyl-2H-pyrazolo[4,3-d]pyrimidin-7(6H)-one] the value was < 250 nM.

As to `C[C@H](CC(=O)N1CCC(O)(Cn2cnc(NCC(=O)N(C)C)cc2=O)CC1)c1ccccc1` [Example 161, (R)-2-((1-((4-hydroxy-1-(3-phenylbutanoyl)piperidin-4-yl)methyl)-6-oxo-1,6-dihydropyrimidin-4-yl)amino)-N,N-dimethylacetamide], the half-maximal inhibitory concentration (IC50) under setting [1] fell in the range of 1000 to 200000 nM. Take `C[C@H](CC(=O)N1CCC(O)(Cn2cnc(N3CCC[C@@H]3CO)cc2=O)CC1)c1ccccc1` [Example 140, 3-((4-hydroxy-1-((R)-3-phenylbutanoyl)piperidin-4-yl)methyl)-6-((R)-2-(hydroxymethyl)pyrrolidin-1-yl)pyrimidin-4(3H)-one]: under setting [1], the IC50 fell in the range of 1000 to 200000 nM.

For `Cn1nc2c(=O)n(CC3(O)CCN(C(=O)C4(C)CC4)CC3)cnc2c1-c1ccc(CN)cc1` [Example 237, 3-(4-(Aminomethyl)phenyl)-6-((4-hydroxy-1-(1-methylcyclopropane-1-carbonyl)piperidin-4-yl)methyl)-2-methyl-2,6-dihydro-7H-pyrazolo[4,3-d]pyrimidin-7-one], the IC50 under setting [1] lay in the range of 1000 to 200000 nM.

Turning to `CC(C)c1c2c(nn1C)C(=O)N(CC1(O)CCN(C(=O)C[C@@H](C)c3ccccc3)CC1)CN2` [Example 34, (R)-6-((4-Hydroxy-1-(3-phenylbutanoyl)piperidin-4-yl)methyl)-3-isopropyl-2-methyl-5,6-dihydro-2H-pyrazolo[4,3-d]pyrimidin-7(4H)-one], under setting [1], the IC50 is 1000 to 200000 nM. For `CC(=O)N1CC2(C1)CN(c1cc(=O)n(CC3(O)CCN(C(=O)C[C@@H](C)c4ccccc4)CC3)cn1)C2` [Example 172, (R)-6-(6-acetyl-2,6-diazaspiro[3.3]heptan-2-yl)-3-((4-hydroxy-1-(3-phenylbutanoyl)piperidin-4-yl)methyl)pyrimidin-4(3H)-one], under setting [2], the IC50 was 250 to 999 nM. For the molecule `C[C@H](CC(=O)N1CCC(O)(Cn2cnc(NCCO)cc2=O)CC1)c1ccccc1` [Example 103, (R)-3-((4-Hydroxy-1-(3-phenylbutanoyl)piperidin-4-yl)methyl)-6-((2-hydroxyethyl)amino)pyrimidin-4(3H)-one], the half-inhibitory concentration (IC50) under setting [1] is 1000 to 200000 nM. For `COCC(CC(=O)N1CCC(O)(Cn2cnc3c(-c4ccc(CN)cc4)n(C)nc3c2=O)CC1)c1ccccc1` (racemic) [Example 53, (R,S)-3-(4-(Aminomethyl)phenyl)-6-((4-hydroxy-1-(4-methoxy-3-phenylbutanoyl)piperidin-4-yl)methyl)-2-methyl-2H-pyrazolo[4,3-d]pyrimidin-7(6H)-one], the IC50 under setting [1] was < 250 nM. In the case of `Cn1nc2c(=O)n(CC3(O)CCN(C(=O)C[C@H](c4ccccc4)C(F)F)CC3)cnc2c1-c1ccc(CN)cc1` [Example 80, (R)-3-(4-(Aminomethyl)phenyl)-6-((1-(4,4-difluoro-3-phenylbutanoyl)-4-hydroxypiperidin-4-yl)methyl)-2-methyl-2H-pyrazolo[4,3-d]pyrimidin-7(6H)-one], under setting [1], the concentration for half-maximal inhibition (IC50) is < 250 nM. With `Cn1nc2c(=O)n(CC3(O)CCN(C(=O)C[C@H](c4ccccc4)C(F)(F)F)CC3)cnc2c1-c1ccc(CN)c(F)c1` [Example 82, (R)-3-(4-(Aminomethyl)-3-fluorophenyl)-6-((4-hydroxy-1-(4,4,4-trifluoro-3-phenylbutanoyl)piperidin-4-yl)methyl)-2-methyl-2H-pyrazolo[4,3-d]pyrimidin-7(6H)-one], under setting [1], the 50% inhibitory concentration (IC50) is < 250 nM. For `Cn1nc2c(=O)n(CC3(O)CCN(C(=O)C[C@H](c4ccccc4)C(F)(F)F)CC3)cnc2c1-c1ccc([C@H](N)C(F)(F)F)cc1` [Example 119, 3-(4-((S)-1-Amino-2,2,2-trifluoroethyl)phenyl)-6-((4-hydroxy-1-((R)-4,4,4-trifluoro-3-phenylbutanoyl)piperidin-4-yl)methyl)-2-methyl-2H-pyrazolo[4,3-d]pyrimidin-7(6H)-one], under setting [1], the IC50 is < 250 nM. Still for that read-out and setting: then `O=C(c1cnc(C2CC2)o1)N1CCC(O)(Cn2cnc3c(cc(Cl)n3-c3ccc(C4CC4)cc3)c2=O)CC1` [Example 221, 6-Chloro-3-((1-(2-cyclopropyloxazole-5-carbonyl)-4-hydroxypiperidin-4-yl)methyl)-7-(4-cyclopropylphenyl)-3H-pyrrolo[2,3-d]pyrimidin-4(7H)-one], with < 250 nM; and `O=C(c1cnc(C2CC2)o1)N1CCC(O)(Cn2cnc3c(cc(Cl)n3-c3ccccc3)c2=O)CC1` [Example 215, 6-Chloro-3-((1-(2-cyclopropyloxazole-5-carbonyl)-4-hydroxypiperidin-4-yl)methyl)-7-phenyl-3H-pyrrolo[2,3-d]pyrimidin-4(7H)-one], with < 250 nM. `C[C@H](CC(=O)N1CCC(O)(Cn2cnc(N3CCOCC3)cc2=O)CC1)c1ccccc1` [Example 100, (R)-3-((4-Hydroxy-1-(3-phenylbutanoyl)piperidin-4-yl)methyl)-6-morpholinopyrimidin-4(3H)-one]: the IC50 under setting [1] was 1000 to 200000 nM.

The values above are taken from US10766903B2 (ALMAC DISCOVERY LIMITED, priority 2016, dated 2020).
